Some test systems named below: IGROV1 ovarian; LOX IMVI melanoma; MDA-MB-435; NCI-H23 lung; NCI-H522 lung; SK-MEL-2 melanoma; SK-MEL-28 melanoma; SR leukemia; TK-10 renal; UACC-257 melanoma.
Experiment in all cases: NCI anticancer screen, dose series, 48 h

Where “and” joins values, the source holds several entries; their conditions need not be identical. Equal values may be shown once.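 Exposure lasted 48 hours, with cells grown in 96-well plates and compounds tested at five concentrations. The concentration for 50% growth inhibition is given as GI50. TGI: concentration producing complete growth inhibition.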

`CC(C)n1nc(-c2ccc3oc(N)nc3c2)c2c(N)ncnc21`: the GI50 with IGROV1 ovarian was below 0.01 µM; with LOX IMVI melanoma, 0.0127 µM and 0.0174 µM; in the experiment on MDA-MB-435, < 0.0125 µM and 0.0138 µM; in the experiment on NCI-H23 lung it was 0.0268 µM and 0.0176 µM; in the experiment on NCI-H522 lung, below 0.01 µM; in the experiment on SK-MEL-2 melanoma, 0.0194 µM and 0.0157 µM. For the same compound, the GI50 in the experiment on SK-MEL-28 melanoma was below 0.0108 µM; in the experiment on SR leukemia it was 0.0284 µM and < 0.0112 µM; with TK-10 renal it was < 0.0113 µM and 0.0112 µM; in the experiment on UACC-257 melanoma it was < 0.0123 µM and 0.0137 µM. The TGI is 0.0554 µM and 0.277 µM with IGROV1 ovarian; 1.33 µM and 1.64 µM with LOX IMVI melanoma; 0.403 µM and 0.11 µM in the experiment on MDA-MB-435; 8.16 µM and 2.39 µM in the experiment with NCI-H23 lung; 15.3 µM and 1.76 µM in the experiment with NCI-H522 lung; 0.581 µM and 0.113 µM in the experiment on SK-MEL-2 melanoma. The TGI with SK-MEL-28 melanoma is 0.189 µM; with SR leukemia it was 3.84 µM; in the experiment on TK-10 renal, 0.24 µM and 0.0897 µM; in the experiment with UACC-257 melanoma it was 0.145 µM and 0.121 µM.
On to `C/C(=N\NC(=S)N1CC2CCC(CC2)C1)c1cccc(C)n1`, for which the TGI is 13.9 µM with IGROV1 ovarian; 8.16 µM with LOX IMVI melanoma; 19.6 µM with MDA-MB-435; 19.4 µM in the experiment with NCI-H23 lung; 0.343 µM and 1.5 µM in the experiment with NCI-H522 lung; 21.4 µM with SK-MEL-2 melanoma. Also, the TGI in the experiment with SK-MEL-28 melanoma was 17.7 µM; in the experiment with SR leukemia, above 32.9 µM; with TK-10 renal it was 16.1 µM; in the experiment on UACC-257 melanoma, 9.8 µM. In addition, the GI50 with LOX IMVI melanoma was 0.179 µM; in the experiment with NCI-H522 lung it was 0.232 µM; with SR leukemia, 0.21 µM; in the experiment on TK-10 renal it was 0.786 µM; with UACC-257 melanoma, 0.68 µM.
For the compound `CC(C)CC(Nc1c(O)ccc2ccccc12)C(=O)O` (stereo unspecified), the TGI was above 100 µM in the experiment with IGROV1 ovarian; above 100 µM with LOX IMVI melanoma; 45.6 µM with MDA-MB-435; above 100 µM in the experiment with NCI-H23 lung; above 100 µM with NCI-H522 lung; 42.5 µM in the experiment on SK-MEL-2 melanoma. The TGI in the experiment with SK-MEL-28 melanoma was above 100 µM; with SR leukemia, above 100 µM; in the experiment with TK-10 renal it was above 100 µM; in the experiment with UACC-257 melanoma, 50.3 µM.
As for `CCCCNC(=O)c1cc(NCc2cc(O)ccc2O)ccc1O`, the GI50 was 26.1 µM in the experiment on IGROV1 ovarian; 14.7 µM with LOX IMVI melanoma; 17.7 µM in the experiment with MDA-MB-435; 17.1 µM in the experiment with NCI-H23 lung; 1.32 µM in the experiment with NCI-H522 lung; 22.8 µM in the experiment on SK-MEL-2 melanoma. Also, the GI50 in the experiment with SK-MEL-28 melanoma is 16.3 µM; in the experiment on SR leukemia, 5.35 µM; with TK-10 renal, 22.6 µM; with UACC-257 melanoma it was 16.4 µM. In addition, the TGI is 62.7 µM with IGROV1 ovarian; 29.2 µM in the experiment with LOX IMVI melanoma; 39.5 µM in the experiment on MDA-MB-435; 40.5 µM in the experiment with NCI-H23 lung; 2.94 µM in the experiment with NCI-H522 lung; 65 µM in the experiment on SK-MEL-2 melanoma. Also, the TGI is 30.3 µM in the experiment with SK-MEL-28 melanoma, above 100 µM in the experiment with SR leukemia, 37.6 µM in the experiment with TK-10 renal and 32.4 µM in the experiment on UACC-257 melanoma.
In the case of `Cc1cc(C(=O)NC(CCC(=O)O)C(=O)O)sc1CCC1CNc2nc(N)[nH]c(=O)c2C1` (stereo unspecified), the GI50 in the experiment with IGROV1 ovarian is 0.0464 µM and 0.192 µM; in the experiment with LOX IMVI melanoma it was 0.0294 µM and 0.0365 µM; with MDA-MB-435, 0.0354 µM and 0.0542 µM; in the experiment with NCI-H522 lung it was < 0.0226 µM and 0.0546 µM; in the experiment on SK-MEL-28 melanoma it was 0.0435 µM and 0.0643 µM; in the experiment with SR leukemia, < 0.0156 µM and 0.0263 µM. Besides, the GI50 with TK-10 renal is 0.0355 µM and 0.065 µM; with UACC-257 melanoma, 0.0722 µM and 0.228 µM. In addition, the TGI in the experiment on IGROV1 ovarian, in the experiment with LOX IMVI melanoma, with MDA-MB-435, with NCI-H23 lung, with NCI-H522 lung and in the experiment on SK-MEL-2 melanoma was above 100 µM each time. For the same compound, the TGI in the experiment with SK-MEL-28 melanoma, in the experiment with SR leukemia, with TK-10 renal and with UACC-257 melanoma was above 100 µM throughout.
Regarding `C/C(=N\N=C(\[Se])N(C)C)c1ccccn1`, the TGI was 10.1 µM in the experiment on IGROV1 ovarian; 12.8 µM in the experiment on LOX IMVI melanoma; 16.6 µM in the experiment on MDA-MB-435; 11 µM in the experiment on NCI-H23 lung; 0.975 µM in the experiment with NCI-H522 lung; 12.9 µM in the experiment on SK-MEL-2 melanoma. Also, the TGI in the experiment on SK-MEL-28 melanoma was found to be 18.9 µM; with SR leukemia, 23.7 µM; in the experiment with TK-10 renal, 18.1 µM; with UACC-257 melanoma it was 0.162 µM.
Consider `Cc1ccc(C2=C(c3ccccc3)C(c3ccccc3)Oc3ccc(C)cc32)cc1` (stereo unspecified), for which the GI50 is 2.49 µM in the experiment with IGROV1 ovarian; 13.8 µM in the experiment on LOX IMVI melanoma; 8.5 µM with MDA-MB-435; 2.2 µM with NCI-H23 lung; 2.28 µM with NCI-H522 lung; 1.9 µM in the experiment on SK-MEL-2 melanoma. Moreover, the GI50 with SR leukemia is 16.5 µM; with TK-10 renal, 13.7 µM; in the experiment on UACC-257 melanoma, 9.2 µM. For the same compound, the TGI was determined as 7.1 µM in the experiment on IGROV1 ovarian; 32 µM with LOX IMVI melanoma; 26.8 µM in the experiment with MDA-MB-435; 5.53 µM with NCI-H23 lung; 5.63 µM in the experiment on NCI-H522 lung; 3.98 µM with SK-MEL-2 melanoma. The TGI with SR leukemia was determined as 38.4 µM; with TK-10 renal, 32.4 µM; in the experiment with UACC-257 melanoma it was 23.7 µM.

The values above are taken from PubChem BioAssay (NCI).
